Reference: US4983582A, “Preventive and therapeutic method for hypertension” (Kao Corporation, priority 1987, dated 1991)
“Also recorded” adds a separate entry of the source.

How the values were obtained:
SHR-rat [1] = assay: Example 2: systolic blood pressure in the SHR, tail artery, closed method, 15 weeks administration; assay type: in vivo; conditions: for Systolic blood pressure in the SHR: average, n = 10
Protocol: To each group comprising 10 male SHR at the age of 9 weeks was dosed average 30 ml/day of the following aqueous solutions for 15 weeks; an aqueous solution of glucose-1-phosphate calcium (1 g/100 ml) represented by the structural formula (a), an aqueous solution of calcium lactate (0.83 g/100 ml), and an aqueous solution of hydrochlorothiazide (0.093 g/100 ml), which is one of the thiazide diuretics, while to a control group was dosed distilled water.
Systolic blood pressure was measured in a closed method in the tail artery of the subject at each time of before administration, 5 weeks of administration, and 15 weeks of administration (the measuring apparatus employed was PS-200 of Rikenkaihatsu Co.).

SHR-rat [2] = assay: Example 1: systolic blood pressure of SHR-rat at tail, 3 months oral administration; assay type: in vivo; conditions: 3 ml/day per orally, average, n = 10
Protocol: To each group comprising 10 male SHR of approx. 300 g of the body weight was per orally dosed 3 ml/day of the following aqueous solutions for 3 months;
an aqueous solution of glucose-1-phosphate calcium (2 g/100 ml) represented by the structural formula (a), and
an aqueous solution of glucose-1-phosphate calcium containing compounds of the general formulas (a) and (b) in the weight ratio of 9:1,
while to a control group was given distilled water.
The systolic blood pressure was measured at the tail of each subject, every one, two and three months of the administration period.

[3] = acute toxicity on peroral dosing to a mouse; conditions: in vivo, po, perorally, read-out: peroral dose at which it exhibits an acute toxicity
[4] = Japanese Patent Publication No. 46-7599 for dental caries; cited from earlier work
[5] = 5 weeks after, average 30 ml/day, glucose-1-phosphate calcium 1 g/100 ml, calcium lactate 0.83 g/100 ml, hydrochlorothiazide 0.093 g/100 ml, control 203
[6] = 15 weeks after, average 30 ml/day, glucose-1-phosphate calcium 1 g/100 ml, calcium lactate 0.83 g/100 ml, hydrochlorothiazide 0.093 g/100 ml, control 211
[7] = before administration, control 197

Row | SMILES | Systolic blood pressure in the SHR (SHR-rat [1]; [5]) | Systolic blood pressure in the SHR (SHR-rat [1]; [6]) | Systolic blood pressure in the SHR (SHR-rat [1]; [7]) | Systolic blood pressure of SHR-rat at tail (SHR-rat [2]; 1 month, control 150) | Systolic blood pressure of SHR-rat at tail (SHR-rat [2]; 2 months, control 187) | Systolic blood pressure of SHR-rat at tail (SHR-rat [2]; 3 months, control 215) | reduction of the systolic blood pressure of SHR-rat compared with hydrochlorothiazide (SHR-rat [1]; SHR-rat, Table 2) | LD50 [3] | physiological effects already reported [4]
1 | CC(O)C(=O)O (stereo not drawn) [Calcium lactate, calcium lactate] | 190 | 204 | 198 | – | – | – | – | – | –
2 | O=P(O)(O)OC1O[C@H](CO)[C@@H](O)[C@H](O)[C@H]1O (stereo partly drawn) [Glucose-1-phosphate calcium (a), glucose-1-phosphate calcium] | 175 | 185 | 199 | 148 | 153 | 155 | – | – | –
3 | NS(=O)(=O)c1cc2c(cc1Cl)NCNS2(=O)=O [Hydrochlorothiazide, hydrochlorothiazide] | 175 | 188 | 200 | – | – | – | – | – | –
4 | O=P(O)(O)OC1O[C@H](CO)[C@@H](O)[C@H](O)[C@H]1O (stereo partly drawn) [glucose-1-phosphate calcium] | – | – | – | – | – | – | substantially in the same extent as hydrochlorothiazide | ≥ 15000 mg/kg | effect of inhibiting dental caries; also recorded: cartilage-calcification promotion effect; also recorded: fatigue-recuperation effect
